22 molecules from ChEMBL document CHEMBL4699612, “Discovery of thiosemicarbazone-containing compounds with potent anti-proliferation activity against drug-resistant K562/A02 cells” (Bioorg Med Chem Lett, 2020) can be followed below.

pIC50: −log10 of the molar value. A value given as a limit tells only on which side of the number the result lay.

What is called pIC50 is −log10 of the IC50, conventionally taken in molar units.

Test [1] concerns K562. In words: Antiproliferative activity against human K562 cells by MTT assay. It is filed as functional, cell-based.
The test system of test [2] is K562/A02. Put plainly: Antiproliferative activity against human K562/A02 cells overexpressing P-gp by MTT assay. Format: functional, cell-based. On the technique in general: Formazan colour is commonly taken as a measure of viable cells.
A short description of test [3]: Resistance index, ratio of IC50 for human K562/A02 cells to IC50 for human K562 cells. Format: functional. Also on record: reference not given here.
In test [4] the target is Histone deacetylase 1 (Homo sapiens, UniProt Q13547). In words: Inhibition of recombinant human HDAC1 using Boc-Lys(Ac)-AMC as substrate incubated for 60 mins by fluorimetric assay.
Chain of Histone deacetylase 1 (Q13547 whole entry): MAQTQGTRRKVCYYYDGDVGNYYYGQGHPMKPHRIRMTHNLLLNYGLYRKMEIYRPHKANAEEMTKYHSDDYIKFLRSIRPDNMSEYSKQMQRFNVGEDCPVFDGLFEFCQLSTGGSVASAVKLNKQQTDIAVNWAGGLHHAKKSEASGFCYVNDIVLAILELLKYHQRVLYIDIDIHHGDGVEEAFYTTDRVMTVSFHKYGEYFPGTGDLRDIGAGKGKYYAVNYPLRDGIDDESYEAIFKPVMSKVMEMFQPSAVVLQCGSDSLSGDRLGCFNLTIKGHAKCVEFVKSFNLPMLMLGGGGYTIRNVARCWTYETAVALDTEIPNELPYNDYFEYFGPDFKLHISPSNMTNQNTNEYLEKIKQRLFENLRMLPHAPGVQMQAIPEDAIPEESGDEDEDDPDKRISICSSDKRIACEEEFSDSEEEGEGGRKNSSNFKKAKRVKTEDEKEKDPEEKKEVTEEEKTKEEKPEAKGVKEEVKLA
For test [5], the target named is T1, Protein deacetylase HDAC6 (Homo sapiens, UniProt Q9UBN7).
T1 sequence (Q9UBN7 whole entry): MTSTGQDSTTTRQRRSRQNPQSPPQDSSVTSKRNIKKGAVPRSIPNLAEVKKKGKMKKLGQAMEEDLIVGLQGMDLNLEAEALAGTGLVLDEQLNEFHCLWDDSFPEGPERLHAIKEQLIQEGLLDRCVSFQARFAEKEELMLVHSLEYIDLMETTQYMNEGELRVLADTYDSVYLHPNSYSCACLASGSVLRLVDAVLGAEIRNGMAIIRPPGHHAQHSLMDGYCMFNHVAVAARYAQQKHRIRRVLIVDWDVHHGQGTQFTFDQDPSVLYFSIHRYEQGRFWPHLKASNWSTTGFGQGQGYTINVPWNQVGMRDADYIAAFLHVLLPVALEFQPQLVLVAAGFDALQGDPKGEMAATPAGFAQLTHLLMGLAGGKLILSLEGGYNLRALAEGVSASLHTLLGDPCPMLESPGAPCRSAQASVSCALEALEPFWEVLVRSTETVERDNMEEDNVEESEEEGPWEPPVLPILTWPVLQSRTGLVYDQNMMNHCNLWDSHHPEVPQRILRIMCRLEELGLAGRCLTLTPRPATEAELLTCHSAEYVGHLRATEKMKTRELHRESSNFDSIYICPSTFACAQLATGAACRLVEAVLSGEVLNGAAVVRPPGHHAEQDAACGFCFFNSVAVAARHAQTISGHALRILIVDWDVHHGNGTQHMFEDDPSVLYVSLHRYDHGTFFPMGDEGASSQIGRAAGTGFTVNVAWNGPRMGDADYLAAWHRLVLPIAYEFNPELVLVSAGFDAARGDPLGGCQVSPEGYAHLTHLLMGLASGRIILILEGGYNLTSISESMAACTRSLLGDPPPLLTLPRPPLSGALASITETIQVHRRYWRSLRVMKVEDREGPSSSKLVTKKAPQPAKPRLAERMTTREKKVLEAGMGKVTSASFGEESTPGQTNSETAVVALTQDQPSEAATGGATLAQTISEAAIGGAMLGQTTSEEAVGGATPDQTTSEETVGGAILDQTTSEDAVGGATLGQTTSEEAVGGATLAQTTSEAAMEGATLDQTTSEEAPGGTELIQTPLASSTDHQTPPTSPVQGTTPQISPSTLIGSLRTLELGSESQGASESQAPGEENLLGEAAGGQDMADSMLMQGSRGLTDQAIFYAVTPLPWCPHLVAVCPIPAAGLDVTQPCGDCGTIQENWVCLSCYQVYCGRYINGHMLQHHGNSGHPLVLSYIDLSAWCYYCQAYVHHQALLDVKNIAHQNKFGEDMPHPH
In words: Inhibition of recombinant human HDAC6 using Boc-Lys(Ac)-AMC as substrate incubated for 60 mins by fluorimetric assay.

Test [6] has as its target T2, Histone deacetylase 8 (Homo sapiens, UniProt Q9BY41).
T2 sequence (Q9BY41 whole entry): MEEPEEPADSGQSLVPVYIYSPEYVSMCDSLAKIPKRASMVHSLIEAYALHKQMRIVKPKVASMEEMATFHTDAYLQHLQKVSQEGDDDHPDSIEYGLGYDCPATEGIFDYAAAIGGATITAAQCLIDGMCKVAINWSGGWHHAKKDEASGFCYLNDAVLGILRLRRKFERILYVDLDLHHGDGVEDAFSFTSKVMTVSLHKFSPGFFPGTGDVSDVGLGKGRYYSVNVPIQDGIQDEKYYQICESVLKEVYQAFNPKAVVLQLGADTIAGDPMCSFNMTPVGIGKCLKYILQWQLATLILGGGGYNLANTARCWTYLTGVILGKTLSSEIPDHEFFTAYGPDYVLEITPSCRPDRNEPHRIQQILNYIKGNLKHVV
Put plainly: Inhibition of recombinant human HDAC8 using Boc-Lys(Ac)-AMC as substrate incubated for 60 mins by fluorimetric assay.

`C/C(=N\NC(=S)NCCCCCC(=O)NO)c1ccc(F)cc1`: the pIC50 in test [1] was 5.72; in test [2] it was 5.99; in test [4] it was 7.16; in test [5], 7.20; in test [6] it was < 5.30. Also, the “Ratio IC50” value in test [3] is 0.54.
`C/C(=N\NC(=S)NCCCCCC(=O)NO)c1cccc(Br)c1`: the pIC50 was 5.90 in test [1]; 6.28 in test [2]; 7.26 in test [4]; 7.42 in test [5]; < 5.30 in test [6]. Besides, the “Ratio IC50” value in test [3] is given as 0.41.
Regarding `O=C(CCCCCNC(=S)NN=C(c1ccccc1)c1ccccc1)NO`, the values for the negative logarithm of the IC50 (pIC50) in test [1] and in test [2] were 5.42 and 5.44, respectively. Moreover, the “Ratio IC50” value in test [3] is 0.96.
In turn, `O=C(CCCCCCC(=O)Nc1ccccc1)NO` [VORINOSTAT] gave a pIC50 in test [2] of 5.50.
With `COc1cccc2c1C(=O)c1c(O)c3c(c(O)c1C2=O)C[C@@](O)(C(=O)CO)C[C@@H]3O[C@H]1C[C@H](N)[C@H](O)[C@H](C)O1.Cl` [DOXORUBICIN HYDROCHLORIDE], the negative-log IC50 (pIC50) is 6.08 in test [1] and 4.63 in test [2]. For the same molecule, in test [3], the “Ratio IC50” value amounted to 28.21.
The like results for `C/C(=N\NC(=S)NCCCCCC(=O)NO)c1cccc(C)c1` were, in that order, 5.42, 5.45 and 0.93.
For `Cc1ccc(NC(=O)c2ccc(CN3CCN(C)CC3)cc2)cc1Nc1nccc(-c2cccnc2)n1` [IMATINIB] the same measures were 6.21, 6.01 and 1.61.
For `O=C(CCCCCNC(=S)NN=C(c1ccccn1)c1ccccn1)NO` the same measures were 5.54, 5.66 and 0.76.
For the molecule `C/C(=N\NC(=S)NCCCC(=O)NO)c1ccc([N+](=O)[O-])cc1`, the pIC50 in test [1] and in test [2] was < 5.00 throughout.
On to `O=C(CCCCCNC(=S)N/N=C(\c1ccccc1)c1cccc([N+](=O)[O-])c1)NO`, for which the pIC50 in test [1] is 5.79; in test [2] it was 6.03; in test [4] it was 7.15; in test [5], 7.33; in test [6] it was < 5.30. The “Ratio IC50” value in test [3] was found to be 0.58.
As for `O=C(CCCCCNC(=S)N/N=C(\c1ccccc1)c1ccc([N+](=O)[O-])cc1)NO`, the results for the pIC50 in test [1] and in test [2] were 5.54 and 5.34, respectively. Besides, in test [3], the “Ratio IC50” value was found to be 1.57.
The like results for `COc1ccccc1/C(=N/NC(=S)NCCCCCC(=O)NO)c1ccccc1` were, in that order, 5.45, 5.54 and 0.82.
In the case of `Cc1ccc(/C(=N/NC(=S)NCCCCCC(=O)NO)c2ccccc2)cc1`, the pIC50 was 5.36 in test [1] and 5.50 in test [2]. Also, the “Ratio IC50” value in test [3] turned out to be 0.73.
For `O=C(CCCCCNC(=S)N/N=C(\c1ccccc1)c1ccccc1[N+](=O)[O-])NO` the same measures were 5.63, 5.88 and 0.56.
For `COc1cccc(/C(C)=N/NC(=S)NCCCCCC(=O)NO)c1` the same measures were 5.72, 5.72 and 0.98.
Consider `CN(C)C(=S)NN=C(c1ccccn1)c1ccccn1`, for which the pIC50 is 5.46 in test [1]; 5.52 in test [2]; < 5.30 in test [4]; < 5.30 in test [5]; < 5.30 in test [6]. The “Ratio IC50” value in test [3] is reported as 0.88.
As for `COc1ccccc1/C(C)=N/NC(=S)NCCCC(=O)NO`, the pIC50 in test [1] and in test [2] was < 5.00 in each case.
Take `O=C(CCCCCNC(=S)N/N=C(\c1ccccc1)c1ccccc1F)NO`: the values for the pIC50 in test [1] and in test [2] were 5.33 and 5.22, respectively. Further, the “Ratio IC50” value in test [3] turned out to be 1.3.
For `C/C(=N\NC(=S)NCCCCCC(=O)NO)c1cccc(C(F)(F)F)c1` the same measures were 5.85, 6.05 and 0.64.
In the case of `C/C(=N\NC(=S)NCCCC(=O)NO)c1cccc([N+](=O)[O-])c1`, the pIC50 in test [1] and in test [2] was < 5.00 in each case.
Take `O=C(CCCCCNC(=S)N/N=C(\c1ccccc1)c1ccccn1)NO`: the pIC50 in test [1] was 5.67; in test [2], 5.69. Moreover, in test [3], the “Ratio IC50” value is 0.95.
For `Cc1ccccc1/C(=N/NC(=S)NCCCCCC(=O)NO)c1ccccc1` the same measures were 5.45, 5.37 and 1.2.
